One series relates to NALM16 leukaemia cells. Briefly: Cancer cell viability, CellTiter-Glo, NALM16. Format: cell-based. The following applies: NALM16, 72 h, read-out: NALM16, IC50.
The next series is described as follows: physchem. The following applies: phosphate buffer, pH 7.4.
Series [1] in a line: in vitro. The following applies: human; for Papp B→A: Caco-2; for Papp: Caco-2, Caco2 A/B (Papp), A to B.
Series [2] in a line: in vitro. To be noted: human, microsomes.
Series [3] is described as follows: in vitro. The following applies: human, plasma.
The target in the next series is BRD2 (BD1) (Homo sapiens, UniProt P25440). Kind of series: TR-FRET binding assay, BRD2. (In TR-FRET formats the signal depends on donor and acceptor labels being close together.)
A further series deals with BRD4(BD2) (Homo sapiens, UniProt O60885). Kind of series: TR-FRET binding assay, BRD4.
Series [4] concerns D283 medulloblastoma cells. Briefly: Cancer cell viability, CellTiter-Glo, D283. To be noted: D283, 72 h, read-out: D283, IC50. It counts as cell-based. (In ATP-based viability assays light output follows the ATP content of the culture.)
For series [5] the following is noted: incubation 0.5h, UV; table.
The subject of series [6] is MOLM-13 acute leukaemia cells. Kind of series: Cancer cell viability, CellTiter-Glo, MOLM-13. It counts as cell-based. To be noted: Homo sapiens, MOLM-13, 72 h, read-out: MOLM-13, IC50.
Series [7] is classed as in vitro ADME. The following applies: RED assay.
In a further series the target is BRD2(BD2) (Homo sapiens, UniProt P25440). Kind of series: TR-FRET binding assay, BRD2.
The conditions of series [8]: incubation up to 48h.
A short description of series [9]: In vivo pharmacokinetic study in female CD1 mice. The following applies: P.O. 3mg/kg and 10mg/kg.
The subject of series [10] is HDMB03 medulloblastoma cells. Briefly: cells. Format: cell-based. The following applies: Homo sapiens, HD-MB03, 72 h, read-out: HDMB03, IC50.
In a further series the test system is MYC. Kind of series: MYC protein abundance by immunoblotting in MV4-11. Format: cell-based. To be noted: MV4–11, 6 hours incubation, 100 nM. A general note: Immunoblotting shows a protein as a band on a membrane.
A further series has as its target BRD4 (BD1) (Homo sapiens, UniProt O60885). Briefly: TR-FRET binding assay, BRD4.
Another series concerns BET isoforms. Briefly: BROMOscan profiling. The following applies: all BET isoforms (Figure S2).

13 molecules from paper PMC10165889 (European journal of medicinal chemistry, 2023) can be followed below.

≈ marks a conversion by molar mass, not a printed value.

BRD2 (BD1), sequence (P25440 74-180 limits assumed): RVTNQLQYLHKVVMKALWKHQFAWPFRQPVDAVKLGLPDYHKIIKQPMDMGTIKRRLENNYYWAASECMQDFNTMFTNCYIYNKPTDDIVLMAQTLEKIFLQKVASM
BRD2(BD2), sequence (P25440 344-453 limits assumed): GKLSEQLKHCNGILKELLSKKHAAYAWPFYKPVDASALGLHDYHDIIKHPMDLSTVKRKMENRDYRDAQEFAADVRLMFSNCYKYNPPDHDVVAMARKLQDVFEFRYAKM

Usually IC50 stands for the concentration that inhibits the measured activity by half. In general, solubility refers to the concentration that dissolves in the medium under given conditions. Read a low solubility as a poorly soluble substance. For orientation: Papp B→A means how fast a substance crosses the layer from the basolateral side. A word on the Papp: it is a coefficient for how fast a substance crosses the barrier. Low readings indicate slow passage, high ones fast passage. The half-life is how long it takes for the measured level to halve. A high value points to slow decline. For `Cc1sc2c(c1C)C(c1ccc(Cl)cc1)=N[C@@H](CC(=O)NCc1ccccn1)c1nnc(C)n1-2` [1k], the concentration for half-maximal inhibition (IC50) with NALM16 leukaemia cells stood at 14.8 nM. The solubility at 18 h in the series “physchem” amounted to 72.5 µM (≈ 35.6 µg/mL). Also, in the series “in vitro [1]”, the Papp B→A amounted to 56.8 ×10⁻⁶ cm/s and the Papp is 9.84 ×10⁻⁶ cm/s. This molecule showed a half-life in the series “in vitro [2]” of 6 min. This molecule came in with a half-life in the series “in vitro [3]” of more than 4.17 days.

For `Cc1sc2c(c1C)C(c1ccc(Cl)cc1)=N[C@@H](CC(=O)NCc1c[nH]nn1)c1nnc(C)n1-2` [1d], the concentration for half-maximal inhibition (IC50) on BRD2 (BD1) came to 8.6 nM; on BRD4(BD2), 1.3 nM. In addition, the concentration in solution in “physchem” (solubility at 18 h) came to 57.4 µM (≈ 27.6 µg/mL). The molecule also had a half-life in “in vitro [2]” of 36 min.

As for `Cc1sc2c(c1C)C(c1ccc(Cl)cc1)=N[C@@H](CC(=O)NCC(=O)O)c1nnc(C)n1-2` [1l], the IC50 in series [4] was more than 8.85 µM. The molecule further registered a solubility at 18 h in the series “physchem” of 66.4 µM (≈ 30.4 µg/mL). In series [5], the PAMPA is given as 0.5 10^−6cm/s. In the series “in vitro [2]”, this molecule had a half-life of 678 min.

In the series “physchem”, `Cc1sc2c(c1C)C(c1ccc(Cl)cc1)=N[C@@H](CC(=O)NCCO)c1nnc(C)n1-2` [1n] showed a solubility at 18 h of 76.1 µM (≈ 33.8 µg/mL). In “in vitro [1]”, this molecule yielded an apparent permeability from basolateral to apical (Papp B→A) of 8.33 ×10⁻⁶ cm/s and an apparent permeability (Papp) of 0.7 ×10⁻⁶ cm/s. In “in vitro [2]”, this molecule gave a half-life of 192 min. In addition, the IC50 in series [6] came out at 8.8 nM. For the same molecule, in “in vitro [3]”, the half-life was more than 4.17 days.

As for `Cc1sc2c(c1C)C(c1ccc(Cl)cc1)=N[C@@H](CC(=O)NCc1ncco1)c1nnc(C)n1-2` [1i], in the series on NALM16 leukaemia cells, the IC50 is 0.8 nM.

Consider `Cc1sc2c(c1C)C(c1ccc(Cl)cc1)=N[C@@H](CC(=O)Nc1ccc(O)cc1)c1nnc(C)n1-2` [1c, birabresib, reference compound], for which the “PB (human plasma binding)” value in [7] came to 97.3%.

Consider `Cc1sc2c(c1C)C(c1ccc(Cl)cc1)=N[C@@H](CC(=O)NCc1ccccc1)c1nnc(C)n1-2` [1g], for which, in “physchem”, the concentration in solution (solubility at 18 h) came to 34.1 µM (≈ 16.7 µg/mL). Besides, the half-life in the series “in vitro [2]” was 6 min.

Consider `Cc1sc2c(c1C)C(c1ccc(Cl)cc1)=N[C@@H](CC(=O)NCc1ccon1)c1nnc(C)n1-2` [1h], for which, in [7], the “PB (human plasma binding)” value amounted to 93.5%.

As to `COC(=O)C(Cc1c[nH]cn1)NC(=O)C[C@@H]1N=C(c2ccc(Cl)cc2)c2c(sc(C)c2C)-n2c(C)nnc21` (some centres unmarked) [1j], the “PB (human plasma binding)” value in [7] is 92.7%. Also, the solubility at 18 h in the series “physchem” came to 68.4 µM (≈ 37.8 µg/mL). Further, in [5], the PAMPA is reported as 0.0 10^−6cm/s. On BRD4(BD2), this molecule had a half-maximal inhibitory concentration (IC50) of 6.5 nM. Further, the half-life in “in vitro [2]” is 282 min; in the series “in vitro [3]”, 1.03 days.

`Cc1sc2c(c1C)C(c1ccc(Cl)cc1)=N[C@@H](CC(=O)NCc1cn(C)cn1)c1nnc(C)n1-2` [1f] yielded a solubility at 18 h in “physchem” of 65.7 µM (≈ 32.5 µg/mL). In [5], the PAMPA is recorded as 0.0 10^−6cm/s. The molecule also gave a half-life in the series “in vitro [2]” of 30 min.

With `Cc1sc2c(c1C)C(c1ccc(Cl)cc1)=N[C@@H](CC(=O)Nc1nccs1)c1nnc(C)n1-2` [1o], the values for the 50% inhibitory concentration (IC50) on BRD2(BD2), on BRD2 (BD1) and with NALM16 leukaemia cells were 2.6 nM, 10.9 nM and 6.4 nM, respectively. In addition, the “PB (human plasma binding)” value in series [7] was 98.2%. In addition, the solubility at 18 h in the series “physchem” was 12.4 µM (≈ 5.99 µg/mL). In addition, the basolateral-to-apical permeability (Papp B→A) in “in vitro [1]” was determined as 4.11 ×10⁻⁶ cm/s. The molecule further came in with an apparent permeability (Papp) in “in vitro [1]” of 1.91 ×10⁻⁶ cm/s. This molecule showed a half-life in the series “in vitro [2]” of 66 min.

`Cc1sc2c(c1C)C(c1ccc(Cl)cc1)=N[C@@H](CC(=O)NCc1cn(C)nn1)c1nnc(C)n1-2` [1e] gave a solubility at 18 h in the series “physchem” of 80.8 µM (≈ 40 µg/mL). Further, in series [5], the PAMPA was 14.0 10^−6cm/s. In the series “in vitro [2]”, this molecule had a half-life of 30 min.

In [8], `Cc1sc2c(c1C)C(c1ccc(Cl)cc1)=N[C@@H](CC(=O)Nc1nncs1)c1nnc(C)n1-2` [1q] showed a human plasma stability of 100%. Moreover, the IC50 is 1.6 nM at BRD2 (BD1), 6.6 nM in series [10], 3.6 nM in the series on NALM16 leukaemia cells and 6.5 nM on BRD4 (BD1). In addition, the “oral bioavailability in words” value in series [9] was “high bioavailability”. Besides, the MYC protein abundance result with MYC is reported as “around 50%”. Also, the “affinity in BROMOscan profiling” value in the series on BET isoforms was “high affinity for all BET isoforms”.
